According to article PMC11816618, “Pharmacokinetic profile and in vivo anticancer efficacy of anagrelide administered subcutaneously in rodents” (Drug Delivery, 2025):
Where two headings read alike, the source gives them in different places.

Assays:
[1] = Tolerability (body weight, well-being) during the UZLX-GIST2B efficacy experiment
Method: Before and during the treatments, tumor volumes (mm^3) were determined by three dimensional measurements (x × y × z) with a digital caliper. The treatments started after tumors reached an average volume between 150 and 300 mm^3, followed by randomizing the mice to the four treatment groups with an even tumor volume distribution per group. PO-treated mice received 2.5 mg/kg of ANA BID. Mice in the control group were injected with 50 µL of miglyol vehicle, and mice receiving SC ANA were injected Q4D with 35 mg/kg or 70 mg/kg into the loose skin between the shoulder blades (days 1, 5, and 9). During the experiment, tumor volumes were measured on days 1, 4, 8, and 11. In addition, animal well-being was visually monitored, and body weights were measured every day. Absolute tumor volume changes between the first and last days were considered as one of the measurements of treatment efficacy. […] Tumors were collected, weighed, and snap-frozen in liquid nitrogen, and livers of the mice were evaluated by visual inspection.
Statistical analyses were performed using IBM SPSS Statistics 28.0.0.0 (Chicago, IL). p Values below .05 were considered statistically significant. Statistical significance of body weights, tumor volumes, and tumor weights between the treatment groups was analyzed using the independent samples Kruskal–Wallis test and Dunn’s pairwise tests adjusted with Bonferroni’s correction. […]

[2] = PK comparison between three administration routes (IV, PO, SC), plasma LC-MS/MS; type: in vivo, Sprague-Dawley rats; conditions: for Vd/F: read-out: Vz/F
Method: The rats were purchased from SPF Biotechnology Co. Ltd. (Beijing, China). Animals were acclimated to the test facility for at least three days, during which their general health was checked by veterinary staff or other authorized personnel. Animals were kept in polycarbonate cages containing absorbent corncob bedding, with a maintained temperature range of +20-25 °C and a 12-h light/dark cycle. Animals had access to food and drinking water ad libitum during acclimation and the experiment. At the end of the study, the rats were euthanized by exposure to an increasing concentration of CO2. […] The SC formulation was prepared by dissolving micronized ANA (5 μm particle size) in an oily triglyceride ester of saturated caprylic and capric fatty acids and glycerol (Miglyol® 810 N, IOI Oleo GmbH, Hamburg, Germany). […] To evaluate plasma concentration-time profiles, blood samples were collected from the jugular vein in EDTA tubes and stored at -70 °C until further analysis. […] In the second PK analysis in rats with a longer follow-up time, blood samples were collected at 0, 30 min, 1 […], and 56 d after dosage. SD rat plasma was analyzed for ANA, 3-OH-ANA, and RL603 concentrations by Pharmaron (Beijing, China). ANA, 3-hydroxy-anagrelide (CAS No. 733043-41-9, Cat. No. sc-206647, Santa Cruz Biotechnology, Inc., Dallas, TX), and RL603 (CAS No. 327602-34-6, Cat. No. sc-391661, Santa Cruz Biotechnology, Inc., Dallas, TX) were used as reference items in calibration standards and quality control (QC) samples. The HPLC and the MS/MS (LCMS-8060) instruments were both from SHIMADZU (Kyoto, Japan), and the column used was a Raptor Biphenyl column (2.7 μm, 50 × 2.1 mm, Restek, Bellefonte, PA). The desired serial concentrations of working solutions were achieved by diluting analyte stock solution with 50% acetonitrile in water. […] These QC samples were prepared on the day of analysis in the same way as calibration standards. Carbamazepine (CAS No. 298-46-4, Sigma-Aldrich, St. Louis, MO) was used as an internal standard for all analytes. Altogether, 55 μL of standards, 55 μL of QC samples, and 55 μL of test samples (comprising 50 μL of plasma and 5 μL of blank solution) were added to 200 μL of acetonitrile containing an internal standard mixture to precipitate protein. The samples were then vortexed for 30 seconds. After centrifugation at 4000 × g (+4 °C) for 5 min, the supernatant was diluted threefold with water, and 2 μL of the diluted supernatant was injected into the LC/MS/MS system for quantitative analysis. The transitions were 256.00-198.90 m/z for anagrelide hydrochloride, 272.00-198.95 m/z for 3-hydroxy anagrelide, 216.00-198.95 m/z for RL603, and 237.20-194.10 m/z for carbamazepine. […] Plasma drug concentration-time profiles were drawn by the average plasma concentrations at specific time points using Microsoft Excel (Redmond, WA). […] Certara, Princeton, NJ) software. Averages of each variable were used when PK values were compared.

[3] = SC 1.0 mg/kg vs IV 0.5 mg/kg, SD rats
[4] = Sprague-Dawley, rat, plasma, single ANA dose 0.5 mg/kg IV, male SD rats, n = 3, mean ± SD
[5] = Sprague-Dawley, rat, plasma, single ANA dose 1.0 mg/kg SC in miglyol, male SD rats, n = 5, mean ± SD
[6] = Sprague-Dawley, rat, plasma, single ANA dose 2.5 mg/kg PO, male SD rats, n = 3, mean ± SD
[7] = Sprague-Dawley, rat, analyte in plasma after single ANA dose 0.5 mg/kg IV, male SD rats, n = 3, mean ± SD
[8] = Sprague-Dawley, rat, analyte in plasma after single ANA dose 1.0 mg/kg SC in miglyol, male SD rats, n = 5, mean ± SD
[9] = Sprague-Dawley, rat, analyte in plasma after single ANA dose 2.5 mg/kg PO, male SD rats, n = 3, mean ± SD

With `O=C1CN2Cc3c(ccc(Cl)c3Cl)N=C2N1` [Anagrelide, imidazo‐[2,1‐b] quinazolin‐2[3H]‐one, 6,7‐dichloro‐1,5‐dihydro, monohydro‐chloride] the relative body weight ([1]; 2.5 mg/kg PO BID, 11 days, still in the acceptable range, p = .016) was “significantly lower relative body weights”, the “finding at the injection site” value ([1]; 35 or 70 mg/kg SC Q4D in miglyol) was “drug precipitates near the injection site” and the “AUClast lower with SC than with IV” value [2, 3] was 36%. The “increase of T1/2 with SC administration compared to IV” value [2, 3] was 25 fold, the MRT inf [2, 4] was 0.51 ± 0.08 h and the clearance [2, 4] was 31.9 ± 2.52 mL/min/kg. For the same compound, the Vd ([2]; Sprague-Dawley, rat, plasma, single ANA dose 0.5 mg/kg IV, male SD rats, n = 3, mean ± SD, read-out: Vss) was 0.97 ± 0.1 L/kg, the CL/F [2, 5] was 101 ± 37.4 mL/min/kg and the MRT inf [2, 5] was 48.1 ± 22.7 h. The bioavailability [2, 5] was 33.5 ± 9.79%, the Vd/F [2, 5] was 218 ± 149 L/kg and the CL/F [2, 6] was 718 ± 125 mL/min/kg. For the same compound, the MRT inf [2, 6] was 6.38 ± 1.33 h, the bioavailability [2, 6] was 4.19 ± 0.7% and the Vd/F [2, 6] was 634 ± 338 L/kg. For the same compound, the AUC(0-inf) [2, 7] was 262 ± 19.9 ng·h/mL, the AUC(0-t) [2, 7] was 261 ± 19.8 ng·h/mL and the Cmax [2, 7] was 497 ± 17.5 ng/mL. For the same compound, the half-life [2, 7] was 1.09 ± 0.22 h, the AUC(0-inf) [2, 8] was 187 ± 62 ng·h/mL and the AUC(0-t) [2, 8] was 167 ± 57.1 ng·h/mL. The Cmax [2, 8] was 12.4 ± 3.14 ng/mL, the half-life [2, 8] was 27.3 ± 24.4 h and the AUC(0-inf) [2, 9] was 59.3 ± 9.49 ng·h/mL. For the same compound, the AUC(0-t) [2, 9] was 51.4 ± 7.09 ng·h/mL, the Cmax [2, 9] was 18 ± 2.59 ng/mL and the half-life [2, 9] was 10.1 ± 4.93 h. The “time to compound elimination from plasma” value ([2]; after IV 0.5 mg/kg, SD rats) was ≤ 6 h, the “decrease of plasma concentrations by the 8-h time point” value ([2]; after PO 2.5 mg/kg, SD rats) was “approximately 90%” and the “time point after which plasma concentrations were no longer detectable” value ([2]; after SC 1.0 mg/kg, SD rats, except a few irregular observations near the quantification limit) was 72 h. It also gave a Tmax ([2]; analyte in plasma after single ANA dose 1.0 mg/kg SC in miglyol, male SD rats, n = 5, mean ± SD, 1 mg/kg) of 0.80 ± 0.27 h, a Tmax ([2]; male, Sprague-Dawley, rat, plasma, iv, 0.5 mg/kg, analyte in plasma after single ANA dose 0.5 mg/kg IV, male SD rats, n = 3, mean ± SD, read-out: Tmax) of 0.083 h and a Tmax ([2]; male, Sprague-Dawley, rat, plasma, po, 2.5 mg/kg, analyte in plasma after single ANA dose 2.5 mg/kg PO, male SD rats, n = 3, mean ± SD, read-out: Tmax) of 1 h. It also gave a Tmax ([2]; male, Sprague-Dawley, rat, plasma, sc, 1 mg/kg, analyte in plasma after single ANA dose 1.0 mg/kg SC in miglyol, male SD rats, n = 5, mean ± SD, read-out: Tmax) of 1 h.
